For 10 compounds, EC50 results are on record in patent US12441722B2, “Therapeutic agents and methods of treatment” (University of Florida Research Foundation, Incorporated, priority 2020, dated 2025).

One experiment relates to MOLT-4. Description: Cell viability assay (tetrazolium-based MTS) in MOLT4 cells. The note with it: Homo sapiens, MOLT-4, MOLT4 acute lymphoblastic leukemia cells, 48 h incubation. The method, then: Cancer cells from acute lymphoblastic leukemia (MOLT4) were incubated with increasing concentrations of compounds of Examples 1-9 for 48 h. Cell viability was measured by tetrazolium-based MTS assay. 5×10^4 to 1×10^5 suspension cells or 3×10^3 to 5×10^3 adherent cells were seeded and treated in 96-well plates for 48 h. The EC50 values of individual agents were calculated with GraphPad Prism.
For `Cc1c(-c2ccc(N3CCc4cccc(C(=O)Nc5nc6ccccc6s5)c4C3)nc2C(=O)NCCCCNc2cccc3c2C(=O)N(C2CCC(=O)NC2=O)C3=O)cnn1CC12CC3CC(CC(C3)C1)C2` (stereo not shown) [degrader #3, 2-(5-(1-(adamantan-1-ylmethyl)-5-methyl-1H-pyrazol-4-yl)-6-((4-((2-(2,6-dioxopiperidin-3-yl)-1,3-dioxoisoindolin-4-yl)amino)butyl)carbamoyl)pyridin-2-yl)-N-(benzo[d]thiazol-2-yl)-1,2,3,4-tetrahydroisoquinoline-8-carboxamide], the concentration giving a half-maximal response (EC50) (usually the concentration at which the effect is half-maximal) fell in the range of 100 to 1000 nM.

In turn, `Cc1ncsc1-c1ccc([C@H](CC(=O)NCCNC(=O)c2nc(N3CCc4cccc(C(=O)Nc5nc6ccccc6s5)c4C3)ccc2-c2cnn(CC34CC5CC(CC(C5)C3)C4)c2C)NC(=O)[C@@H]2C[C@@H](O)CN2C(=O)[C@@H](NC(=O)C2(C#N)CC2)C(C)(C)C)cc1` [degrader #20, 2-(5-(1-(adamantan-1-ylmethyl)-5-methyl-1H-pyrazol-4-yl)-6-((2-((S)-3-((2S,4R)-1-((S)-2-(1-cyanocyclopropane-1-carboxamido)-3,3-dimethylbutanoyl)-4-hydroxypyrrolidine-2-carboxamido)-3-(4-(4-methylthiazol-5-yl)phenyl)propanamido)ethyl)carbamoyl)pyridin-2-yl)-N-(benzo[d]thiazol-2-yl)-1,2,3,4-tetrahydroisoquinoline-8-carboxamide] displayed an EC50 of 10 to 100 nM. Still for that read-out and setting: the same measure for `Cc1c(-c2ccc(N3CCc4cccc(C(=O)Nc5nc6ccccc6s5)c4C3)nc2C(=O)NCCCCCCCCNc2cccc3c2C(=O)N(C2CCC(=O)NC2=O)C3=O)cnn1CC12CC3CC(CC(C3)C1)C2` (stereo not shown) [degrader #5, 2-(5-(1-(adamantan-1-ylmethyl)-5-methyl-1H-pyrazol-4-yl)-6-((8-((2-(2,6-dioxopiperidin-3-yl)-1,3-dioxoisoindolin-4-yl)amino)octyl)carbamoyl)pyridin-2-yl)-N-(benzo[d]thiazol-2-yl)-1,2,3,4-tetrahydroisoquinoline-8-carboxamide]: 100 to 1000 nM; for `Cc1c(-c2ccc(N3CCc4cccc(C(=O)Nc5nc6ccccc6s5)c4C3)nc2C(=O)NS(=O)(=O)CCCn2cc(COCCOCCNc3cccc4c3C(=O)N(C3CCC(=O)NC3=O)C4=O)nn2)cnn1CC12CC3CC(CC(C3)C1)C2` (stereo not shown) [degrader #1, 2-(5-(1-(adamantan-1-ylmethyl)-5-methyl-1H-pyrazol-4-yl)-6-(((3-(4-((2-(2-((2-(2,6-dioxopiperidin-3-yl)-1,3-dioxoisoindolin-4-yl)amino)ethoxy)ethoxy)methyl)-1H-1,2,3-triazol-1-yl)propyl)sulfonyl)carbamoyl)pyridin-2-yl)-N-(benzo[d]thiazol-2-yl)-1,2,3,4-tetrahydroisoquinoline-8-carboxamide]: 10 to 100 nM.

Still in this experiment, the particulars now being: MOLT4 acute lymphoblastic leukemia cells, 48 h incubation.
In turn, `Cc1c(-c2ccc(N3CCc4cccc(C(=O)Nc5nc6ccccc6s5)c4C3)nc2C(=O)O)cnn1CC12CC3CC(C1)CC(C(=O)NCCOCCOCCOCCNc1cccc4c1C(=O)N(C1CCC(=O)NC1=O)C4=O)(C3)C2` (stereo not shown) [degrader #40, 6-(8-(benzo[d]thiazol-2-ylcarbamoyl)-3,4-dihydroisoquinolin-2(1H)-yl)-3-(1-(((1r,3r)-3-((2-(2-(2-(2-((2-(2,6-dioxopiperidin-3-yl)-1,3-dioxoisoindolin-4-yl)amino)ethoxy)ethoxy)ethoxy)ethyl)carbamoyl)adamantan-1-yl)methyl)-5-methyl-1H-pyrazol-4-yl)picolinic acid] came in with a concentration for a half-maximal effect (EC50) of 10 to 100 nM. Same read-out and setting: the same measure for `Cc1c(-c2ccc(N3CCc4cccc(C(=O)Nc5nc6ccccc6s5)c4C3)nc2C(=O)O)cnn1CC12CC3CC(C1)CC(C(=O)NCCCCCCNc1cccc4c1C(=O)N(C1CCC(=O)NC1=O)C4=O)(C3)C2` (stereo not shown) [degrader #35, 6-(8-(benzo[d]thiazol-2-ylcarbamoyl)-3,4-dihydroisoquinolin-2(1H)-yl)-3-(1-(((1r,3r)-3-((6-((2-(2,6-dioxopiperidin-3-yl)-1,3-dioxoisoindolin-4-yl)amino)hexyl)carbamoyl)adamantan-1-yl)methyl)-5-methyl-1H-pyrazol-4-yl)picolinic acid]: 10 to 100 nM; for `Cc1c(-c2ccc(N3CCc4cccc(C(=O)Nc5nc6ccccc6s5)c4C3)nc2C(=O)O)cnn1CC12CC3CC(C1)CC(C(=O)NCCCCCCCCNc1cccc4c1C(=O)N(C1CCC(=O)NC1=O)C4=O)(C3)C2` (stereo not shown) [degrader #36, 6-(8-(benzo[d]thiazol-2-ylcarbamoyl)-3,4-dihydroisoquinolin-2(1H)-yl)-3-(1-(((1r,3r)-3-((8-((2-(2,6-dioxopiperidin-3-yl)-1,3-dioxoisoindolin-4-yl)amino)octyl)carbamoyl)adamantan-1-yl)methyl)-5-methyl-1H-pyrazol-4-yl)picolinic acid]: under 10 nM; for `Cc1c(-c2ccc(N3CCc4cccc(C(=O)Nc5nc6ccccc6s5)c4C3)nc2C(=O)NCCOCCOCCOCC#Cc2cccc3c2CN(C2CCC(=O)NC2=O)C3=O)cnn1CC12CC3CC(CC(C3)C1)C2` (stereo not shown) [degrader #28, 2-(5-(1-(adamantan-1-ylmethyl)-5-methyl-1H-pyrazol-4-yl)-6-((2-(2-(2-((3-(2-(2,6-dioxopiperidin-3-yl)-1-oxoisoindolin-4-yl)prop-2-yn-1-yl)oxy)ethoxy)ethoxy)ethyl)carbamoyl)pyridin-2-yl)-N-(benzo[d]thiazol-2-yl)-1,2,3,4-tetrahydroisoguinoline-8-carboxamide]: under 10 nM. Same read-out and setting: the same measure for `Cc1ncsc1-c1ccc([C@H](C)NC(=O)[C@@H]2C[C@@H](O)CN2C(=O)[C@@H](NC(=O)CCCCCCNC(=O)C23CC4CC(CC(Cn5ncc(-c6ccc(N7CCc8cccc(C(=O)Nc9nc%10ccccc%10s9)c8C7)nc6C(=O)O)c5C)(C4)C2)C3)C(C)(C)C)cc1` [degrader #43, 6-(8-(benzo[d]thiazol-2-ylcarbamoyl)-3,4-dihydroisoquinolin-2(1H)-yl)-3-(1-(((1S,3r)-3-((7-(((S)-1-((2S,4R)-4-hydroxy-2-(((S)-1-(4-(4-methylthiazol-5-yl)phenyl)ethyl)carbamoyl)pyrrolidin-1-yl)-3,3-dimethyl-1-oxobutan-2-yl)amino)-7-oxoheptyl)carbamoyl)adamantan-1-yl)methyl)-5-methyl-1H-pyrazol-4-yl)picolinic acid]: 100 to 1000 nM. The same measure, in the same setting: to `Cc1ncsc1-c1ccc([C@H](C)NC(=O)[C@@H]2C[C@@H](O)CN2C(=O)[C@@H](NC(=O)CCNC(=O)C23CC4CC(CC(Cn5ncc(-c6ccc(N7CCc8cccc(C(=O)Nc9nc%10ccccc%10s9)c8C7)nc6C(=O)O)c5C)(C4)C2)C3)C(C)(C)C)cc1` [degrader #41, 6-(8-(benzo[d]thiazol-2-ylcarbamoyl)-3,4-dihydroisoquinolin-2(1H)-yl)-3-(1-(((1S,3r)-3-((3-(((S)-1-((2S,4R)-4-hydroxy-2-(((S)-1-(4-(4-methylthiazol-5-yl)phenyl)ethyl)carbamoyl)pyrrolidin-1-yl)-3,3-dimethyl-1-oxobutan-2-yl)amino)-3-oxopropyl)carbamoyl)adamantan-1-yl)methyl)-5-methyl-1H-pyrazol-4-yl)picolinic acid] belongs over 1000 nM.
